What was measured:
Assay type in all cases: functional
NCI-H23 = experiment: Growth inhibition of human NCI-H23 cells at 10^-5 M incubated for 48 hrs by sulforhodamine B assay; settings: NCI-H23, 48 h, read-out: GI
OVCAR-5 = experiment: Growth inhibition of human OVCAR5 cells at 10^-5 M incubated for 48 hrs by sulforhodamine B assay; settings: OVCAR-5, 48 h, read-out: GI
MCF7 = experiment: Growth inhibition of human MCF7 cells at 10^-5 M incubated for 48 hrs by sulforhodamine B assay; settings: MCF7, 48 h, read-out: GI
UACC-62 = experiment: Growth inhibition of human UACC62 cells at 10^-5 M incubated for 48 hrs by sulforhodamine B assay; settings: UACC-62, 48 h, read-out: GI
HL-60(TB) = experiment: Growth inhibition of human HL-60(TB) cells at 10^-5 M incubated for 48 hrs by sulforhodamine B assay; settings: HL-60, 48 h, read-out: GI
LOX IMVI = experiment: Growth inhibition of human LOXIMVI cells at 10^-5 M incubated for 48 hrs by sulforhodamine B assay; settings: read-out: GI
OVCAR-8 = experiment: Growth inhibition of human OVCAR8 cells at 10^-5 M incubated for 48 hrs by sulforhodamine B assay; settings: OVCAR-8, 48 h, read-out: GI
786-0 = experiment: Growth inhibition of human 786-0 cells at 10^-5 M incubated for 48 hrs by sulforhodamine B assay; settings: 786-0, 48 h, read-out: GI
Hs-578T = experiment: Growth inhibition of human Hs 578T cells at 10^-5 M incubated for 48 hrs by sulforhodamine B assay; settings: read-out: GI
SF-268 = experiment: Growth inhibition of human SF268 cells at 10^-5 M incubated for 48 hrs by sulforhodamine B assay; settings: SF-268, 48 h, read-out: GI
M14 = experiment: Growth inhibition of human M14 cells at 10^-5 M incubated for 48 hrs by sulforhodamine B assay; settings: M14, 48 h, read-out: GI
Malme-3M = experiment: Growth inhibition of human MALME-3M cells at 10^-5 M incubated for 48 hrs by sulforhodamine B assay; settings: read-out: GI
SW-620 = experiment: Growth inhibition of human SW620 cells at 10^-5 M incubated for 48 hrs by sulforhodamine B assay; settings: SW-620, 48 h, read-out: GI
SN12C = experiment: Growth inhibition of human SN12C cells at 10^-5 M incubated for 48 hrs by sulforhodamine B assay; settings: read-out: GI
DU-145 = experiment: Growth inhibition of human DU145 cells at 10^-5 M incubated for 48 hrs by sulforhodamine B assay; settings: DU-145, 48 h, read-out: GI
SNB-75 = experiment: Growth inhibition of human SNB75 cells at 10^-5 M incubated for 48 hrs by sulforhodamine B assay; settings: SNB-75, 48 h, read-out: GI
ACHN = experiment: Growth inhibition of human ACHN cells at 10^-5 M incubated for 48 hrs by sulforhodamine B assay; settings: read-out: GI
SNB-19 = experiment: Growth inhibition of human SNB19 cells at 10^-5 M incubated for 48 hrs by sulforhodamine B assay; settings: SNB-19, 48 h, read-out: GI
CCRF-CEM = experiment: Growth inhibition of human CCRF-CEM cells at 10^-5 M incubated for 48 hrs by sulforhodamine B assay; settings: read-out: GI
HCT-15 = experiment: Growth inhibition of human HCT15 cells at 10^-5 M incubated for 48 hrs by sulforhodamine B assay; settings: HCT-15, 48 h, read-out: GI
A498 = experiment: Growth inhibition of human A498 cells at 10^-5 M incubated for 48 hrs by sulforhodamine B assay; settings: A498, 48 h, read-out: GI
OVCAR-3 = experiment: Growth inhibition of human OVCAR3 cells at 10^-5 M incubated for 48 hrs by sulforhodamine B assay; settings: OVCAR-3, 48 h, read-out: GI
T47D = experiment: Growth inhibition of human T47D cells at 10^-5 M incubated for 48 hrs by sulforhodamine B assay; settings: read-out: GI
NCI/ADR-RES = experiment: Growth inhibition of human NCI/ADR-RES cells at 10^-5 M incubated for 48 hrs by sulforhodamine B assay; settings: read-out: GI
HCT-116 = experiment: Growth inhibition of human HCT116 cells at 10^-5 M incubated for 48 hrs by sulforhodamine B assay; settings: HCT-116, 48 h, read-out: GI
RXF 393 = experiment: Growth inhibition of human RXF393 cells at 10^-5 M incubated for 48 hrs by sulforhodamine B assay; settings: RXF 393, 48 h, read-out: GI
SK-MEL-28 = experiment: Growth inhibition of human SK-MEL-28 cells at 10^-5 M incubated for 48 hrs by sulforhodamine B assay; settings: SK-MEL-28, 48 h, read-out: GI
MDA-MB-231 = experiment: Growth inhibition of human MDA-MB-231 cells at 10^-5 M incubated for 48 hrs by sulforhodamine B assay; settings: MDA-MB-231, 48 h, read-out: GI
NCI-H460 = experiment: Growth inhibition of human NCI-H460 cells at 10^-5 M incubated for 48 hrs by sulforhodamine B assay; settings: NCI-H460, 48 h, read-out: GI
SK-MEL-5 = experiment: Growth inhibition of human SK-MEL-5 cells at 10^-5 M incubated for 48 hrs by sulforhodamine B assay; settings: SK-MEL-5, 48 h, read-out: GI
SR = experiment: Growth inhibition of human SR cells at 10^-5 M incubated for 48 hrs by sulforhodamine B assay; settings: read-out: GI
MOLT-4 = experiment: Growth inhibition of human MOLT4 cells at 10^-5 M incubated for 48 hrs by sulforhodamine B assay; settings: MOLT-4, 48 h, read-out: GI
SK-OV-3 = experiment: Growth inhibition of human SKOV3 cells at 10^-5 M incubated for 48 hrs by sulforhodamine B assay; settings: SK-OV-3, 48 h, read-out: GI
SF-295 = experiment: Growth inhibition of human SF295 cells at 10^-5 M incubated for 48 hrs by sulforhodamine B assay; settings: SF-295, 48 h, read-out: GI
IGROV-1 = experiment: Growth inhibition of human IGROV1 cells at 10^-5 M incubated for 48 hrs by sulforhodamine B assay; settings: IGROV-1, 48 h, read-out: GI
TK-10 = experiment: Growth inhibition of human TK10 cells at 10^-5 M incubated for 48 hrs by sulforhodamine B assay; settings: TK-10, 48 h, read-out: GI
NCI-H522 = experiment: Growth inhibition of human NCI-H522 cells at 10^-5 M incubated for 48 hrs by sulforhodamine B assay; settings: NCI-H522, 48 h, read-out: GI
NCI-H322M = experiment: Growth inhibition of human NCI-H322M cells at 10^-5 M incubated for 48 hrs by sulforhodamine B assay; settings: read-out: GI
A549 = experiment: Growth inhibition of human A549/ATCC cells at 10^-5 M incubated for 48 hrs by sulforhodamine B assay; settings: A549, 48 h, read-out: GI

| Compound | inhibition of growth at 10 µM (NCI-H23) [%] | inhibition of growth at 10 µM (OVCAR-5) [%] | inhibition of growth at 10 µM (MCF7) [%] | inhibition of growth at 10 µM (UACC-62) [%] | inhibition of growth at 10 µM (HL-60(TB)) [%] | inhibition of growth at 10 µM (LOX IMVI) [%] | inhibition of growth at 10 µM (OVCAR-8) [%] | inhibition of growth at 10 µM (786-0) [%] | inhibition of growth at 10 µM (Hs-578T) [%] | inhibition of growth at 10 µM (SF-268) [%] | inhibition of growth at 10 µM (M14) [%] | inhibition of growth at 10 µM (Malme-3M) [%] | inhibition of growth at 10 µM (SW-620) [%] | inhibition of growth at 10 µM (SN12C) [%] | inhibition of growth at 10 µM (DU-145) [%] | inhibition of growth at 10 µM (SNB-75) [%] | inhibition of growth at 10 µM (ACHN) [%] | inhibition of growth at 10 µM (SNB-19) [%] | inhibition of growth at 10 µM (CCRF-CEM) [%] | inhibition of growth at 10 µM (HCT-15) [%] | other results |
| --- | --- | --- | --- | --- | --- | --- | --- | --- | --- | --- | --- | --- | --- | --- | --- | --- | --- | --- | --- | --- | --- |
| O=C1SC2=Nc3c(sc4ccc(Cl)cc34)C(c3ccc4ccccc4c3)N2C1=O (stereo not drawn) | 20.5 | -1.12 | 68.7 | 34.2 | -4.12 | 1.85 | 5.42 | 2.6 | 1.4 | 12.7 | 7.5 | 12.9 | 4.8 | 13.2 | -1.57 | 5.78 | 14.5 | 2.61 | -5.01 | 7.44 | inhibition of growth at 10 µM (A498): 13.1%; inhibition of growth at 10 µM (OVCAR-3): 9.4%; inhibition of growth at 10 µM (T47D): 24.5%; inhibition of growth at 10 µM (NCI/ADR-RES): 4.45%; inhibition of growth at 10 µM (HCT-116): 23.4%; inhibition of growth at 10 µM (RXF 393): 3.64%; inhibition of growth at 10 µM (SK-MEL-28): -13.2%; inhibition of growth at 10 µM (MDA-MB-231): 18.1%; inhibition of growth at 10 µM (NCI-H460): 4.51%; inhibition of growth at 10 µM (SK-MEL-5): 5.6%; inhibition of growth at 10 µM (SR): 26.4%; inhibition of growth at 10 µM (MOLT-4): 11.9%; inhibition of growth at 10 µM (SK-OV-3): 9.71%; inhibition of growth at 10 µM (SF-295): -2.51%; inhibition of growth at 10 µM (IGROV-1): 26.4%; inhibition of growth at 10 µM (TK-10): -28.7%; inhibition of growth at 10 µM (NCI-H522): 16.6%; inhibition of growth at 10 µM (NCI-H322M): 13.9%; inhibition of growth at 10 µM (A549): 1.04% |
| N=C1Nc2c(sc3ccc(Cl)cc23)C(c2cccc(Br)c2)N1 (stereo not drawn) | 13.7 | -3.33 | 25.6 | 16.5 | -2.27 | 1.33 | -2.43 | 5.21 | -4.14 | 6.03 | 1.65 | 4.36 | -3.61 | 6.52 | -10.7 | 14.4 | 7.06 | 2.72 | -20.7 | -3.08 | inhibition of growth at 10 µM (A498): -4.39%; inhibition of growth at 10 µM (OVCAR-3): 0.84%; inhibition of growth at 10 µM (T47D): 11.3%; inhibition of growth at 10 µM (NCI/ADR-RES): 2.51%; inhibition of growth at 10 µM (HCT-116): 3.22%; inhibition of growth at 10 µM (RXF 393): -10.1%; inhibition of growth at 10 µM (SK-MEL-28): -17.9%; inhibition of growth at 10 µM (MDA-MB-231): 12.6%; inhibition of growth at 10 µM (NCI-H460): 1.37%; inhibition of growth at 10 µM (SK-MEL-5): 3.53%; inhibition of growth at 10 µM (SR): 22.4%; inhibition of growth at 10 µM (MOLT-4): 7.81%; inhibition of growth at 10 µM (SK-OV-3): 7.9%; inhibition of growth at 10 µM (SF-295): -3.08%; inhibition of growth at 10 µM (IGROV-1): 13%; inhibition of growth at 10 µM (TK-10): -23.2%; inhibition of growth at 10 µM (NCI-H522): 12.2%; inhibition of growth at 10 µM (NCI-H322M): 10.3%; inhibition of growth at 10 µM (A549): 1.98% |
